Measurements: the RepoRT retention time repository
Structures can show the parent of a compound that is named as a salt.

test: RP, Restek Raptor Biphenyl, 100 × 2.1 mm, 2.7 µm, 50 °C, 0.4 mL/min, estimated dead time 0.55 min; A: water + 0.1% formic acid, pH 3; B: methanol + 0.1% formic acid, pH 3; gradient (min/%B) 0/5 1.12/5 6.41/99.5 10.01/99.5; settings: stereoisomer not certain

Row | SMILES | LC retention time
1 | CCCCCCCCCCCCCCC[n+]1cccc(S(=O)(=O)[O-])c1 [C15-APS] | 6.23 min
2 | N#Cc1nn(-c2c(Cl)cc(C(F)(F)F)cc2Cl)c(N)c1S(=O)C(F)(F)F (centres undefined) [Fipronil] | 5.6 min
3 | CCCCCCCCCCCC=CCCCCC(=O)O [PETROSELINATE] | 6.63 min
4 | O=C(O)C=Cc1cnc[nH]1 [4-Imidazoleacrylic acid] | 0.718 min
5 | O=C(O)CCCCCC(=O)O [6-CARBOXYHEXANOATE] | 3.35 min
6 | CCCCCCCCCC(O)CC(=O)OC(CC(=O)[O-])C[N+](C)(C)C [[(3R)-3-Hydroxydodecanoyl]-L-carnitine] | 5.15 min
7 | CCCCCCCCCCCCCCCCCCCCCCCCCCCCCC(=O)O [Melissic acid] | 7.12 min
8 | CCC(C)CCCCCCCCCCCCC(=O)O (centres undefined) [14-Methylhexadecanoic acid] | 6.58 min
9 | CC(C)(C)N(NC(=O)c1ccc(Cl)cc1)C(=O)c1ccccc1 [Halofenozide] | 5.6 min
10 | CC(=O)N[C@@H](Cc1ccc(O)cc1)C(=O)O [N-Acetyl-L-tyrosine] | 2.88 min
11 | CC(CCC(=O)NCC(=O)O)C1CCC2C3CC(O)C4CC(O)CCC4(C)C3CCC12C (centres undefined) [Glycohyodeoxycholic acid] | 5.79 min
12 | CCCCCCCCCCCCCC[n+]1cccc(S(=O)(=O)[O-])c1 [C14-APS] | 6.1 min
13 | CC(=O)NC(Cc1ccccc1)C(=O)O (centres undefined) [N-ACETYLPHENYLALANINE] | 4.06 min
14 | O=C(O)c1c[nH]c2ccccc12 [Indole-3-carboxylic acid] | 4.08 min
15 | COC(=O)c1ccc(CNS(C)(=O)=O)cc1S(=O)(=O)NC(=O)Nc1nc(OC)cc(OC)n1 [Mesosulfuron-methyl] | 6.04 min
16 | CC(CCC(=O)O)C1CCC2C3C(=O)CC4CC(=O)CCC4(C)C3CC(=O)C12C (centres undefined) [Dehydrocholic acid] | 6.13 min
17 | CCC[n+]1cccc(S(=O)(=O)[O-])c1 [C3-APS] | 1.67 min
18 | CC(O)(CC(=O)O)CC(=O)O [3-Hydroxy-3-methylglutaric acid] | 1.01 min
19 | CC=C(C)C(=O)NCC(=O)O [Tiglyl Glycine] | 2.95 min
20 | CC(C(=O)O)C(O)(CC(=O)O)C(=O)O (racemic) [Trisodium 2-methylcitrate, racemic mixture of diastereomers] | 1.03 min

Row | SMILES | LC retention time
21 | CSc1ncnc2nc[nH]c12 [THIOPURINE S-METHYLETHER] | 3.77 min
22 | CCCCCCCCCCCCCCCCCC(=O)O [Stearic acid] | 6.67 min
23 | O=C(O)CCCCC(=O)O [Adipic acid] | 2.5 min
24 | O=c1[nH]c(=O)c2ncn(C3OC(CO)C(O)C3O)c2[nH]1 (centres undefined) [XANTHOSINE] | 1.47 min
25 | O=C(O)CCCC(O)C(=O)O (racemic) [Disodium (2RS)-2-hydroxyadipate] | 1.03 min
26 | C=CCC(C)C(=O)O (centres undefined) [2-Methyl-4-pentenoic acid] | 3.16 min
27 | CCCCCCSCC(NC(=O)CCC(N)C(=O)O)C(=O)NCC(=O)O (centres undefined) [S-HEXYL-GLUTATHIONE] | 4.59 min
28 | CC(C)C1CCC(Cc2ccc(Cl)cc2)C1(O)Cn1cncn1 (centres undefined) [Ipconazole] | 6.21 min
29 | O=C(O)CCCCC1SCC2NC(=O)NC21 (centres undefined) [BIOTIN] | 4 min
30 | O=C(O)Cc1ccccc1 [PHENYLACETATE] | 2.46 min
31 | OCCc1c[nH]c2ccccc12 [INDOLE-3-ETHANOL] | 4.06 min
32 | CC(CC(=O)O)C1CCC2C3CCC4CC(O)CCC4(C)C3CC(O)C12C (centres undefined) [Nor-Desoxycholic Acid] | 6.24 min
33 | O=C(O)C(O)Cc1c[nH]c2ccccc12 (racemic) [DL-Indole-3-lactic acid] | 3.91 min
34 | CCN(Cc1ccc(Cl)nc1)C(=C[N+](=O)[O-])NC [Nitenpyram] | 3.63 min
35 | COc1cc(OC)nc(NC(=O)NS(=O)(=O)c2cc(NC=O)ccc2C(=O)N(C)C)n1 [Foramsulfron] | 5.76 min
36 | CC(CCC(=O)O)CC(=O)O (centres undefined) [3-Methyladipic acid] | 3.25 min
37 | CC(=O)NC(CC(N)=O)C(=O)O (centres undefined) [N-ACETYLASPARAGINE] | 0.702 min
38 | CC(C)CCCCCCCCCCCCCC(=O)O [15-Methylpalmitic acid] | 6.58 min
39 | CC1(C)CCC(Cc2ccc(Cl)cc2)C1(O)Cn1cncn1 (centres undefined) [Metconazole] | 6.09 min
40 | O=C(O)CCC(=O)C(=O)O [α-Ketoglutaric acid] | 0.722 min

Row | SMILES | LC retention time
41 | CCC(C)C(=O)NCC(=O)O (centres undefined) [N-(2-Methylbutyryl)glycine] | 2.83 min
42 | O=C(O)c1ccc(O)cc1 [4-HYDROXYBENZOATE] | 0.822 min
43 | CSCCC(O)C(=O)O (centres undefined) [2-HYDROXY-4-(METHYLTHIO)BUTANOATE] | 2.51 min
44 | O=C(O)CC[C@H](O)C(=O)O [L-α-Hydroxyglutaric acid disodium salt] | 0.746 min
45 | O=C(O)CCc1ccc(O)cc1 [3-(4-Hydroxyphenyl)propionic acid] | 3.65 min
46 | CCCCCCC(O)CC=CCCCCCCCC(=O)O (centres undefined) [Ricinoleic acid] | 6.18 min
47 | COc1ccc2[nH]cc(CCNC(C)=O)c2c1 [MELATONIN] | 4.57 min
48 | Cc1cc2nc3c(=O)[nH]c(=O)nc-3n(CC(O)C(O)C(O)COP(=O)(O)OP(=O)(O)OCC3OC(n4cnc5c(N)ncnc54)C(O)C3O)c2cc1C (centres undefined) [FAD] | 4.07 min
49 | CC(=O)NC(Cc1c[nH]c2ccccc12)C(=O)O (centres undefined) [N-ACETYLTRYPTOPHAN] | 4.12 min
50 | O=S(=O)(O)Oc1c[nH]c2ccccc12 [INDOXYL SULFATE] | 2.52 min
51 | CCCCCCCCCCCCCCCCCCC[n+]1cccc(S(=O)(=O)[O-])c1 [C19-APS] | 6.61 min
52 | CC(CCC(=O)O)C1CCC2C3C(OS(=O)(=O)O)CC4CC(O)CCC4(C)C3CC(O)C12C (centres undefined) [Cholic acid 7-sulfate] | 5.85 min
53 | O=c1cc[nH]c(=O)[nH]1 [URACIL] | 0.702 min
54 | CC1(c2ccc(Oc3ccccc3)cc2)OC(=O)N(Nc2ccccc2)C1=O (centres undefined) [Famoxadone] | 6.68 min
55 | CCCCCC/C=C/CCCCCCCCCC(=O)O [trans-Vaccenic Acid] | 6.61 min
56 | O=c1[nH]c(=O)c2[nH]c(=O)[nH]c2[nH]1 [URATE] | 0.774 min
57 | CC(=O)OCC(=O)C1(O)CCC2C3CCC4=CC(=O)CCC4(C)C3C(O)CC21C (centres undefined) [CORTISOL 21-ACETATE] | 5.88 min
58 | N#Cc1c[nH]cc1-c1cccc2c1OC(F)(F)O2 [Fludioxonil] | 5.51 min
59 | CCc1ccc(C(=O)NN(C(=O)c2cc(C)cc(C)c2)C(C)(C)C)cc1 [Tebufenozide] | 6.04 min
